ChEMBL document CHEMBL1152961, “Synthesis and biological evaluation of novel carbon-11 labeled pyridyl ethers: candidate ligands for in vivo imaging of alpha4beta2 nicotinic acetylcholine receptors (alpha4beta2-nAChRs) in the brain with positron emission tomography” (Bioorg Med Chem, 2009)

Legend:
[1] = Drug uptake in baboon brain thalamus assessed as binding potential at 31 mCi by bolus injection; type: ADME, organism-based; details: papio anubis, in vivo, iv
[2] = Drug uptake in baboon brain thalamus assessed as binding potential at 17.5 mCi by bolus injection; type: ADME, organism-based; details: papio anubis, in vivo, iv
[3] = Drug uptake in baboon brain thalamus assessed as binding potential at 21 mCi by bolus injection; type: ADME, organism-based; details: papio anubis, in vivo, iv
[4] = molecular target: Neuronal acetylcholine receptor; alpha4/beta2 (Rattus norvegicus) (UniProt P09483+P12390); assay: Ratio of compound Ki to epibatidine Ki for rat alpha4beta2 nicotinic receptor expressed in human HEK293 cells; type: cell-based
Rattus norvegicus = species: Rattus norvegicus; assay: Selectivity ratio of Ki for rat alpha3beta4 nicotinic receptor to Ki for rat alpha4beta2 nicotinic receptor
[5] = molecular target: T1, Neuronal acetylcholine receptor; alpha4/beta2 (Rattus norvegicus, UniProt P09483+P12390); assay: Displacement of [3H]epibatidine from rat alpha4beta2 nicotinic receptor expressed in human HEK293 cells by liquid scintillation counting; type: cell-based
[6] = molecular target: Neuronal acetylcholine receptor; alpha2/beta4 (Rattus norvegicus, UniProt P12389+P12392); assay: Displacement of [3H]epibatidine from rat alpha2beta4 nicotinic receptor expressed in human HEK293 cells by liquid scintillation counting; type: cell-based
[7] = molecular target: Neuronal acetylcholine receptor; alpha4/beta4 (Rattus norvegicus, UniProt P09483+P12392); assay: Displacement of [3H]epibatidine from rat alpha4beta4 nicotinic receptor expressed in human HEK293 cells by liquid scintillation counting; type: cell-based
[8] = molecular target: Neuronal acetylcholine receptor subunit alpha-2 (Rattus norvegicus, UniProt P12389+P12390); assay: Displacement of [3H]epibatidine from rat alpha2beta2 nicotinic receptor expressed in human HEK293 cells by liquid scintillation counting; type: cell-based
[9] = molecular target: Neuronal acetylcholine receptor; alpha3/beta2 (Rattus norvegicus, UniProt P04757+P12390); assay: Displacement of [3H]epibatidine from rat alpha3beta2 nicotinic receptor expressed in human HEK293 cells by liquid scintillation counting; type: cell-based
[10] = Octanol-water partition coefficient, log D at pH 7.4 by shake flask method; type: physicochemical
[11] = molecular target: Neuronal acetylcholine receptor; alpha3/beta4 (Rattus norvegicus, UniProt P04757+P12392); assay: Displacement of [3H]epibatidine from rat alpha3beta4 nicotinic receptor expressed in human HEK293 cells by liquid scintillation counting; type: cell-based
[12] = molecular target: T1, Neuronal acetylcholine receptor; alpha4/beta2; assay: Displacement of [125I]5-A-85380 from alpha4beta2 nicotinic receptor in rat brain; type: tissue-based
[13] = Ratio of drug uptake in thalamus to cerebellum of CD1 mouse at 0.07 mCi, iv after 45 mins; type: ADME, organism-based; details: in vivo, 0.75 h

Neuronal acetylcholine receptor; alpha3/beta2, sequence (P04757 whole entry): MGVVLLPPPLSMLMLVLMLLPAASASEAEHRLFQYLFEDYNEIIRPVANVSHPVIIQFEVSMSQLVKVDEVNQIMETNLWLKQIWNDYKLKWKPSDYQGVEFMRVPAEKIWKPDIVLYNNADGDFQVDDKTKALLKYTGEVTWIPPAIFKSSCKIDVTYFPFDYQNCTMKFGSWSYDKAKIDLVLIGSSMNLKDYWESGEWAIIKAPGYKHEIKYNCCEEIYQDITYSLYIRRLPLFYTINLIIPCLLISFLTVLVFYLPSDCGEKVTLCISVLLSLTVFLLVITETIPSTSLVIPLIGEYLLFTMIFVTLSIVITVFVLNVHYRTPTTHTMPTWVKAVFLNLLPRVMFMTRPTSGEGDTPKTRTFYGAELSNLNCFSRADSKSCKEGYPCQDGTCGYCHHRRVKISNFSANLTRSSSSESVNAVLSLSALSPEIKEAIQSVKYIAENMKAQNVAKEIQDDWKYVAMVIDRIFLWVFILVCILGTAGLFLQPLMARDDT
Neuronal acetylcholine receptor; alpha3/beta2, sequence (P12390 whole entry): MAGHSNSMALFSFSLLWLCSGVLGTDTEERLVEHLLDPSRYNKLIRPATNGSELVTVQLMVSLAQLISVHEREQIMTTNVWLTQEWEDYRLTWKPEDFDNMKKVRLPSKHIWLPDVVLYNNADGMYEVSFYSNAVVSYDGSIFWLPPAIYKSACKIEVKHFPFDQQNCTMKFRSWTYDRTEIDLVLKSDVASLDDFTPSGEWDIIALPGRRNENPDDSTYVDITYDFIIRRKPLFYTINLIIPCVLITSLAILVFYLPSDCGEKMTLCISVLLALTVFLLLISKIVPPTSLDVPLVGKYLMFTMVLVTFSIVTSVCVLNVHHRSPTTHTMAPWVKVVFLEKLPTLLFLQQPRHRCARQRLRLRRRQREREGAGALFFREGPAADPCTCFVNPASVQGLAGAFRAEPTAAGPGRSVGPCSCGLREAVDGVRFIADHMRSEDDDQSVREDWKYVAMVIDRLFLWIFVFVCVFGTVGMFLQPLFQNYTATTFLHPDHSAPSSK
Neuronal acetylcholine receptor; alpha3/beta4, sequence (P04757 whole entry): as the sequence (P04757 whole entry) above
Neuronal acetylcholine receptor; alpha3/beta4, sequence (P12392 whole entry): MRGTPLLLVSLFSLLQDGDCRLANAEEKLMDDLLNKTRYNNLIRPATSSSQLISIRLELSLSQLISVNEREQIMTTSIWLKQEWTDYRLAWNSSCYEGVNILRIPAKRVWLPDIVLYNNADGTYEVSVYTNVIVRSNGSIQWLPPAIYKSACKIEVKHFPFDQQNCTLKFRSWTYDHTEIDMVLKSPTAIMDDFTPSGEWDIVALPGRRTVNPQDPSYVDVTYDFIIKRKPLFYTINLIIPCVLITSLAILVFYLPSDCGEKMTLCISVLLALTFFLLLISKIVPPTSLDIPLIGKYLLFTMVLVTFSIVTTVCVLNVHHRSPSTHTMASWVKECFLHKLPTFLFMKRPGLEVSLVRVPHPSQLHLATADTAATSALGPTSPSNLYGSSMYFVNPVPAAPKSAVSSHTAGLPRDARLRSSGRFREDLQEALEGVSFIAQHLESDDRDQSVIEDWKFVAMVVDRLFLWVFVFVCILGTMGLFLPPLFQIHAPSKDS
Neuronal acetylcholine receptor subunit alpha-2, sequence (P12389 whole entry, one chain of several): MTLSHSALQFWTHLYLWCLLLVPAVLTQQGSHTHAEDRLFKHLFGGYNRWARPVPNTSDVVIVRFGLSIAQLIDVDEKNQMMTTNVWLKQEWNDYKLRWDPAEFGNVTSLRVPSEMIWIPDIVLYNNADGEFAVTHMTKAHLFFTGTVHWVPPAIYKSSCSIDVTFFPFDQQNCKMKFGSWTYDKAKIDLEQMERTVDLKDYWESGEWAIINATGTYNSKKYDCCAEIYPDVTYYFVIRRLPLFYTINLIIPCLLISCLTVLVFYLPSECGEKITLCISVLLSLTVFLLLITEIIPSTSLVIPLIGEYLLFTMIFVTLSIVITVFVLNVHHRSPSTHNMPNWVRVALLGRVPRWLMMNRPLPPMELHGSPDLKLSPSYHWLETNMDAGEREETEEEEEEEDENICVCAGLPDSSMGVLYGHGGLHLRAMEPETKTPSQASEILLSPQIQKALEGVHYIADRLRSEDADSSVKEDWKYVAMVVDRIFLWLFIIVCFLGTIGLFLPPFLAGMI
Neuronal acetylcholine receptor; alpha2/beta4, sequence (P12389 whole entry): as the sequence (P12389 whole entry, one chain of several) above
Neuronal acetylcholine receptor; alpha2/beta4, sequence (P12392 whole entry): as the sequence (P12392 whole entry) above
Neuronal acetylcholine receptor; alpha4/beta4, sequence (P09483 whole entry): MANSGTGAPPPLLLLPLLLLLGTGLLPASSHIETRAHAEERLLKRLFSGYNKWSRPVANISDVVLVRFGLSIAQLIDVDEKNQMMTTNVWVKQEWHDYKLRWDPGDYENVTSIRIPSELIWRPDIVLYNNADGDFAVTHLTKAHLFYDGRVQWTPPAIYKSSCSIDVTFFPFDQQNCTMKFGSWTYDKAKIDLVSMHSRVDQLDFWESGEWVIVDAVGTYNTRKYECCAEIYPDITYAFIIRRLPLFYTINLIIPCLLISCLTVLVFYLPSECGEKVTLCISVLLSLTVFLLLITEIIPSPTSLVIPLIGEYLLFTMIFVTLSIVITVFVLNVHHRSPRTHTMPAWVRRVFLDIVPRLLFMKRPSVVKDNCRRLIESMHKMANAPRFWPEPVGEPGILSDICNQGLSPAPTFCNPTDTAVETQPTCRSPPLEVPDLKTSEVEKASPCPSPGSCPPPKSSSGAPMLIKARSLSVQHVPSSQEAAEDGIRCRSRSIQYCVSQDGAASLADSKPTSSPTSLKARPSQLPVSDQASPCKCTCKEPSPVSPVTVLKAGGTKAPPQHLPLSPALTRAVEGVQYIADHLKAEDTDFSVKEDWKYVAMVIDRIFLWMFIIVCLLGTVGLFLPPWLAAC
Neuronal acetylcholine receptor; alpha4/beta4, sequence (P12392 whole entry): as the sequence (P12392 whole entry) above
T1 sequence (P09483 whole entry): as the sequence (P09483 whole entry) above
T1 sequence (P12390 whole entry): as the sequence (P12390 whole entry) above

| SMILES | Drug uptake [1] | Drug uptake [2] | Drug uptake [3] | Ratio Ki [4] | Ratio Ki (Rattus norvegicus) | Ki [5] | Ki [6] | Ki [7] | Ki [8] | Ki [9] | logD [10] | Ki [11] | Ki [12] | logD ([10]; read-out: logD) | Ratio [13] |
| --- | --- | --- | --- | --- | --- | --- | --- | --- | --- | --- | --- | --- | --- | --- | --- |
| [11CH3]N1CCC[C@H]1COc1cnc(Cl)c(-c2ccnc(F)c2)c1 | 0.7 | 0.7 | 0.7 | – | – | – | – | – | – | – | – | – | – | – | – |
| CN1CCC[C@H]1COc1cnc(Cl)c(OCc2ccnc(F)c2)c1 | – | – | – | 1 | 1450 | 0.062 nM | 11 nM | 1.6 nM | 0.022 nM | 0.33 nM | 1.8 | 90 nM | – | – | – |
| CN1CCC[C@H]1COc1cnc(Cl)c(/C=C/c2ccncc2)c1 | – | – | – | 2.8 | – | – | – | – | – | – | – | – | – | – | – |
| CN1CCC[C@H]1COc1cnc(Cl)c(OCc2ccc(Cl)nc2)c1 | – | – | – | 0.9 | 5820 | 0.055 nM | 14 nM | 6.6 nM | 0.031 nM | 0.26 nM | – | 320 nM | – | – | – |
| Fc1ncccc1OC[C@@H]1CCN1 | – | – | – | – | – | – | 180 nM | – | 1.4 nM | 3 nM | – | 3700 nM | – | – | – |
| [11CH3]N1CCC[C@H]1COc1cnc(Cl)c(/C=C/c2ccncc2)c1 | – | – | – | – | – | – | – | – | – | – | – | – | 0.028 nM | 1.6 | – |
| [11CH3]N1CCC[C@H]1COc1cnc(Cl)c(OCc2ccc(Cl)nc2)c1 | 0.7 | 0.7 | 0.7 | – | – | – | – | – | – | – | – | – | – | – | 3.8 |
| CN1CCC[C@@H]1COc1cnc(Cl)c(OCc2ccc(Cl)nc2)c1 | – | – | – | 18 | 318 | 1.1 nM | 22 nM | 7.6 nM | 1.5 nM | 0.85 nM | 2.2 | 350 nM | – | – | – |
| Fc1cc(COc2cc(OC[C@@H]3CCCN3)cnc2Cl)ccn1 | – | – | – | 2.1 | 331 | 0.13 nM | 8.2 nM | 1.1 nM | 0.035 nM | 0.25 nM | 1.4 | 43 nM | – | – | – |
| CN1CCC[C@H]1COc1cnc(Cl)c(-c2ccnc(F)c2)c1 | – | – | – | 1 | 9520 | 0.062 nM | 27 nM | 16 nM | 0.05 nM | 0.71 nM | 1.6 | 590 nM | – | – | – |
